Assay results published in the Kinase Knowledgebase extract (Sharma et al. 2016).
pIC50: −log10 of the molar value.

How the values were obtained:
MAPK14 (human) = MAPK14 (human) (UniProt Q16539); experiment: Inhibition of MAPK14 Kinase Activity
PIK3CA (human) [1] = biological target: PIK3CA (human) (UniProt P42336); experiment: Inhibition of Substrate Phosphorylation by PIK3CA; conditions: hct 116,bxpc-3 pancreatic,mda-mb-468, concentration not given here
PIK3CA (human) [2] = biological target: PIK3CA (human) (UniProt P42336); experiment: Inhibition of PIK3CA Kinase Activity

Sequence of MAPK14 (human) (Q16539 whole entry, looked up): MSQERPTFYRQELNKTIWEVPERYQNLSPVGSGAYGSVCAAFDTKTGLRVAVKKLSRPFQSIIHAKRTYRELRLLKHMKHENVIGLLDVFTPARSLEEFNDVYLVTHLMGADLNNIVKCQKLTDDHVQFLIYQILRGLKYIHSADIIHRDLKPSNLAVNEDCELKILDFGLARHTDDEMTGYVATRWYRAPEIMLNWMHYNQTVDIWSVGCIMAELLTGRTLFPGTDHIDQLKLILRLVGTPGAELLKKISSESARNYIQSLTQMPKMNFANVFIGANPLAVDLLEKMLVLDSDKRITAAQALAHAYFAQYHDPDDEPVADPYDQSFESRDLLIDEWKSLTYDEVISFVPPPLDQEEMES
Sequence of PIK3CA (human) (P42336 whole entry, looked up): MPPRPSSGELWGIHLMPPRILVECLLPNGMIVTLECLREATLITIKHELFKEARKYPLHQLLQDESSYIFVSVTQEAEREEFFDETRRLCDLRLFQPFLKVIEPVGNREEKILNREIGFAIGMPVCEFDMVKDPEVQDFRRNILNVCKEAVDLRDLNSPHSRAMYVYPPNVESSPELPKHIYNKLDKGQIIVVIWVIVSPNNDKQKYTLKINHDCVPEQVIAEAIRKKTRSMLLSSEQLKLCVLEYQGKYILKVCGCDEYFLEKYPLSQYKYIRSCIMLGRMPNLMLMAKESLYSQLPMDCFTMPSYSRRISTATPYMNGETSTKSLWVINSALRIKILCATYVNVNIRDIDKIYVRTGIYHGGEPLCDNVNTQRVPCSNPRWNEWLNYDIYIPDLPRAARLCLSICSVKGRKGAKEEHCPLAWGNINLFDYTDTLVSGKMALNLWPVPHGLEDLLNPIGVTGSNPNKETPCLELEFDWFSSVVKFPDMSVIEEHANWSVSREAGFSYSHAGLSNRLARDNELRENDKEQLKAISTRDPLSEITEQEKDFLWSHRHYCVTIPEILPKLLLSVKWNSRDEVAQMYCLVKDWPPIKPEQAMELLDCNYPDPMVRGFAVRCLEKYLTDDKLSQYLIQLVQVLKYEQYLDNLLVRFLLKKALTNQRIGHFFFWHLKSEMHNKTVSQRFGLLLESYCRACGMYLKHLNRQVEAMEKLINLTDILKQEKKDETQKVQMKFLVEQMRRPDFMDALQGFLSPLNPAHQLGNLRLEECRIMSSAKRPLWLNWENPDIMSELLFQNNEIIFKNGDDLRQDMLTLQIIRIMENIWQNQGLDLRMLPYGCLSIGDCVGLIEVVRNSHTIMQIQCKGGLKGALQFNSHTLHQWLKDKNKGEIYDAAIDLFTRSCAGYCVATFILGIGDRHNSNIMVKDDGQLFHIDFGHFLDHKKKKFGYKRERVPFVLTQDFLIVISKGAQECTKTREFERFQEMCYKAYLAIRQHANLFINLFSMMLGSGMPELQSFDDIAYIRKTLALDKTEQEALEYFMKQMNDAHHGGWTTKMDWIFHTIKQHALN

| SMILES | pIC50 (MAPK14 (human)) | inhibition (PIK3CA (human) [1]) | pIC50 (PIK3CA (human) [2]) |
| --- | --- | --- | --- |
| CCNC(=O)Nc1ccc2ncc(-c3ccc(OC(=O)OCCOC)c(OC)c3)nc2n1 | < 4.00 | 90% | – |
| CCNC(=O)Nc1ccc(-c2cnc3ccc(NC(=O)NCC)nc3n2)cn1 | < 4.00 | – | – |
| CCNC(=O)Nc1ccc2ncc(-c3ccc(OC(=O)N(C)C)cc3)nc2n1 | < 4.00 | – | – |
| CCOP(=O)(CCCCNC(=O)Nc1ccc2ncc(-c3ccc(O)c(OC)c3)nc2n1)OCC | < 4.00 | – | – |
| CCNC(=O)Nc1ccc2ncc(-c3cccc(OC(=O)OCCOC)c3)nc2n1 | < 4.00 | – | – |
| CCNC(=O)Nc1ccc2ncc(-c3ccc(OC(=O)/C=C/c4ccccc4)cc3)nc2n1 | < 4.00 | – | < 4.50 |
| CCNC(=O)Nc1ccc(-c2cnc3ccc(NC(=O)NCC)nc3n2)cc1 | < 4.00 | 70% | – |
| CCNC(=O)Nc1ccc2ncc(-c3ccc(OC(=O)OC)cc3)nc2n1 | < 4.00 | 50% | – |
| CCNC(=O)Nc1ccc2ncc(-c3ccc(NC(=O)OCCOC)cc3)nc2n1 | < 4.00 | – | – |
| COc1cc(-c2cnc3ccc(NC(=O)NCCCCP(=O)(O)O)nc3n2)ccc1O | < 4.00 | – | – |
| CCNC(=O)Nc1ccc2ncc(-c3ccc(OC(=O)Oc4ccccc4)cc3)nc2n1 | < 4.00 | – | – |
| CCNC(=O)Nc1ccc2ncc(-c3ccc(OC(=O)OCCOC)cc3)nc2n1 | < 4.00 | 100% | – |
| CCNC(=O)Nc1ccc2ncc(Nc3ccc(NC(C)=O)cc3)nc2n1 | < 4.00 | – | – |
| CCNC(=O)Nc1ccc2ncc(Nc3ccc(C)c(NS(C)(=O)=O)c3)nc2n1 | – | 90% | – |
| COCCOC(=O)Oc1ccc(-c2cnc3ccc(NC(=O)NCCCCO)nc3n2)cc1 | < 4.50 | – | – |
| CCNC(=O)Nc1ccc2ncc(-c3ccc(OC(=O)OCC(C)C)cc3)nc2n1 | < 4.00 | – | – |
| CCNC(=O)Nc1ccc2ncc(-c3ccc(NC(=O)OC(C)(C)C)cc3)nc2n1 | < 4.00 | – | – |
| CCNC(=O)Nc1ccc2ncc(-c3ccc(NC(=O)COCCOC)cc3)nc2n1 | < 4.00 | – | – |
